The values below come from patent US10745377B2, “Piperidine or piperazine linked imidazole and triazole derivatives and methods of use” (MERCK SHARP & DOHME CORP., priority 2013, dated 2020).

Assay type in all cases: biochemical
One assay addresses T1, CYP3A4 (Homo sapiens, UniProt P08684).
T1 construct: 0.1 mg/mL protein human liver microsomes (BD Gentest); tissue BD Gentest; host or cells: human liver microsomes
The assay is described as follows: Cocktail assay for CYPs in human liver microsomes: CYP3A4 (midazolam 1′-hydroxylation). Particulars: 2 μM midazolam, 10 min at 37° C., 6 concentrations up to 10 μM. On the technique in general: Microsomes from liver hold many membrane-bound enzymes, among them those of drug oxidation.

The next assay concerns the target T2, CYP1A2 (Homo sapiens, UniProt P05177).
T2 construct: 0.1 mg/mL protein human liver microsomes (BD Gentest); tissue BD Gentest; host or cells: human liver microsomes
T2 sequence (P05177 1-516): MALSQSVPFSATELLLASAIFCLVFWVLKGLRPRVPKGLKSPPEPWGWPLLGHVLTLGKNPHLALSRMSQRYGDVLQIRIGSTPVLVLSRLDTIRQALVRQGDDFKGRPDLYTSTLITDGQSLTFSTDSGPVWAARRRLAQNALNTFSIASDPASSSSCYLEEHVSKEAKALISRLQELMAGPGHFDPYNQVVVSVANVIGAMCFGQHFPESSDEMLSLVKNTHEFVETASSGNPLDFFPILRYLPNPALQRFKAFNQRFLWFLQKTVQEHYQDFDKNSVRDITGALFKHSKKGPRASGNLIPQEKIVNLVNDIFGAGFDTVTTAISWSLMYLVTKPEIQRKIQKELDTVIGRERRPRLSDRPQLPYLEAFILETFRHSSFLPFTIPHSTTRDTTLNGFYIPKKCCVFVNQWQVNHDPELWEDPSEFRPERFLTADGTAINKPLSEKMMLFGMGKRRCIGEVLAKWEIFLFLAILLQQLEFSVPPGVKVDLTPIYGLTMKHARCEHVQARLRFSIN
The assay is described as follows: Cocktail assay for CYPs in human liver microsomes: CYP1A2 (phenacetin O-deethylation).

In another assay the target is T3, CYP2C9 (Homo sapiens, UniProt P11712).
T3 construct: 0.1 mg/mL protein human liver microsomes (BD Gentest); tissue BD Gentest; host or cells: human liver microsomes
Nature of the assay: Cocktail assay for CYPs in human liver microsomes: CYP2C9 (diclofenac 4′-hydroxylation). Particulars: 5 μM diclofenac, 10 min at 37° C., 6 concentrations up to 10 μM.

The next assay addresses T4, CYP2C19 (Homo sapiens, UniProt P33261).
T4 construct: 0.1 mg/mL protein human liver microsomes (BD Gentest); tissue BD Gentest; host or cells: human liver microsomes
Nature of the assay: Cocktail assay for CYPs in human liver microsomes: CYP2C19 (mephenytoin 4′-hydroxylation). Particulars: 30 μM mephenytoin, 10 min at 37° C., 6 concentrations up to 10 μM.

Another assay concerns the target T5, CYP2D6 (Homo sapiens, UniProt P10635).
T5 construct: 0.1 mg/mL protein human liver microsomes (BD Gentest); tissue BD Gentest; host or cells: human liver microsomes
The assay is described as follows: Cocktail assay for CYPs in human liver microsomes: CYP2D6 (dextromethorphan O-demethylation). Particulars: 5 μM dextromethorphan, 10 min at 37° C., 6 concentrations up to 10 μM.

[1] abbreviates: IC50 (nM) CYP3A4, human liver microsomes 0.1 mg/mL.
Where [2] appears, read: IC50 (nM) CYP2C9, human liver microsomes 0.1 mg/mL.
The mark [3] stands for this setting: IC50 (nM) CYP2C19, human liver microsomes 0.1 mg/mL.
Setting [4] is: IC50 (nM) CYP2D6, human liver microsomes 0.1 mg/mL.
The mark [5] stands for this setting: human liver microsomes 0.1 mg/mL, read-out: IC50 (nM) CYP3A4.
[6] abbreviates: human liver microsomes 0.1 mg/mL, 10 μM phenacetin, 10 min at 37° C., 6 concentrations up to 10 μM, read-out: IC50 (nM) CYP1A2.
Where [7] appears, read: human liver microsomes 0.1 mg/mL, read-out: IC50 (nM) CYP2C9.
[8] abbreviates: human liver microsomes 0.1 mg/mL, read-out: IC50 (nM) CYP2C19.
The mark [9] stands for this setting: human liver microsomes 0.1 mg/mL, read-out: IC50 (nM) CYP2D6.

The term IC50 denotes the concentration at which inhibition is half-maximal.

Read-outs that look alike come from different tables or passages of the source. A value given as a limit tells only on which side of the number the result lay.

T3 sequence (P11712 whole entry): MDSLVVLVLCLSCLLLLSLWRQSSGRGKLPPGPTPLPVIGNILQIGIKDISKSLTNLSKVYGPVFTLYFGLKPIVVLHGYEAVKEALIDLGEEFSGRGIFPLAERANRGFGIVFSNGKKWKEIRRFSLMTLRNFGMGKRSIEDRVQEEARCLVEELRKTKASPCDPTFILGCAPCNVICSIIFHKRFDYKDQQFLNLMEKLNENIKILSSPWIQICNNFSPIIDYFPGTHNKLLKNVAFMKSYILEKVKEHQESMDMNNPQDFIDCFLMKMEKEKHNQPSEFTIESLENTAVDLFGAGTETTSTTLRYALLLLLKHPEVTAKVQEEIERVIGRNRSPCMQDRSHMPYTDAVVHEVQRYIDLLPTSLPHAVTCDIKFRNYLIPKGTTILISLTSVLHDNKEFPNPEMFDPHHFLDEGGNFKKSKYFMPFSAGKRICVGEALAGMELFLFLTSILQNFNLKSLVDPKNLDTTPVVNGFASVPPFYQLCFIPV
T5 sequence (P10635 whole entry): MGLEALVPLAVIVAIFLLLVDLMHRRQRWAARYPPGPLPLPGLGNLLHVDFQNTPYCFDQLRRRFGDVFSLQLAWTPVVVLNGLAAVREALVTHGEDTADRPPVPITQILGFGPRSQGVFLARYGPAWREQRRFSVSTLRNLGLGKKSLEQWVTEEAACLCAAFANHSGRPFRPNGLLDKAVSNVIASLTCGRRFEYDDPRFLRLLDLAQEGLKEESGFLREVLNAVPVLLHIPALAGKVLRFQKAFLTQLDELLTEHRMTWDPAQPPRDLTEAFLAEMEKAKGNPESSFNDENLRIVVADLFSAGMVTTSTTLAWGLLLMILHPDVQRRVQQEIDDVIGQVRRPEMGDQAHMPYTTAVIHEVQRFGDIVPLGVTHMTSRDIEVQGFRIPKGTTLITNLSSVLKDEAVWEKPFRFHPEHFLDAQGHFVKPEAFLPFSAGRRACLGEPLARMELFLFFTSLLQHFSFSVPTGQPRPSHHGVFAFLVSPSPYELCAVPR
T1 sequence (P08684 whole entry): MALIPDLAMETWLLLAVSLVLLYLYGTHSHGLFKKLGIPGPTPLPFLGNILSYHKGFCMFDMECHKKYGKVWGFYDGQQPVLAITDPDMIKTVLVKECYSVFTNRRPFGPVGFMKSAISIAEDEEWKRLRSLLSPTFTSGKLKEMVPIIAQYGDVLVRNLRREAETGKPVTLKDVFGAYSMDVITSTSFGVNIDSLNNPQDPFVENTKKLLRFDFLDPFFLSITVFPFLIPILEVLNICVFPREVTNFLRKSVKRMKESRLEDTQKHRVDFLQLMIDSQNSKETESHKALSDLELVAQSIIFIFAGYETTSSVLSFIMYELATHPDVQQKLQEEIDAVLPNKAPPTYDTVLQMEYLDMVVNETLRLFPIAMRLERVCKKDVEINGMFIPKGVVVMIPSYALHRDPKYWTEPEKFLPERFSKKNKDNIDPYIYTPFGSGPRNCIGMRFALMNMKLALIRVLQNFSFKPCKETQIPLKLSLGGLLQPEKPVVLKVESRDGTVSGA
T4 sequence (P33261 whole entry): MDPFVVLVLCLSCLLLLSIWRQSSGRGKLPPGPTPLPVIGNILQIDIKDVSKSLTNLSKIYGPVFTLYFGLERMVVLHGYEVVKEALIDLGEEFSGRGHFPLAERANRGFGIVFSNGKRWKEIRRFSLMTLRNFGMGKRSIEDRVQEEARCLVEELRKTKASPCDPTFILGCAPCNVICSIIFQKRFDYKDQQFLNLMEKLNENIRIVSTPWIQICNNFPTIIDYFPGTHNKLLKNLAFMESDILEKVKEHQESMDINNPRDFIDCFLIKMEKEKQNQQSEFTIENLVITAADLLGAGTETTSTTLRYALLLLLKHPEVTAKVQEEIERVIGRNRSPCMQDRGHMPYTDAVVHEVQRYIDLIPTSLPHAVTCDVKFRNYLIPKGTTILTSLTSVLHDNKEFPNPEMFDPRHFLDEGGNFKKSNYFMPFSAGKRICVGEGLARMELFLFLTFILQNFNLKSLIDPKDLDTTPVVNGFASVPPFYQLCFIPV
Description for CYP1A2: (§1) Determination of IC50 in a Cocktail Assay for CYPs 1A2, 2C9, 2C19, 2D6 and 3A4
(§2) This assay was performed in a standard 96-well plate design. […] The incubation substrate mix contains 10 μM phenacetin (1A2), 5 μM diclofenac (2C9), 30 μM mephenytoin (2C19), 5 μM dextromethorphan (2D6) and 2 μM midazolam (3A4), 0.1 mg/mL protein human liver microsomes (BD Gentest), 1 mM NAPDH, 3.3 mM MgCl2 and 100 mM potassium phosphate buffer (pH 7.4). The production of the metabolite of each probe substrate was determined after incubation for 10 min at 37° C. Quantitation of the metabolite peak area ratio against an internal standard (tolbutamide) was determined by LC/MS/MS analysis following acetonitrile treatment of the incubations.
(§3) Samples were analyzed in the MRM mode with a SCIEX API-4000 mass spectrometer (Applied Biosystems, Foster City, Calif.), with a Shimadzu LC-20 AD pump (Shimadzu corporation, Kyoto, JP) and a CTC PAL autosampler (Agilent Technologies, Switzerland). A Phenomenex, Luna, 5 μm, 100 A, 2.00×30 mm HPLC column was used for the separation. The mobile phases were: (A) 0.1% formic acid in water and (B) 0.1% formic acid in acetonitrile. The binary gradient was as follows.
(§4) The mass spectrum parameters were as follows:
(§5) The LC/MS/MS parameters for the analytes were as follows.
(§6) The peak area ratio of the analyte to the internal standard was used to quantify the metabolite. The values of peak area ratios in the presence of test compound were compared to those of maximum or minimum controls and were expressed as % inhibition by interpolating between the maximum and minimum peak area ratios. Incubations with no inhibitor were defined as the maxima.
(§7) The following equation was used to calculate the % inhibition: [1−[(X−Low control)/(High control−Low control)]]*100
(§8) For the IC50 calculation, SigmaPlot was used to plot the mean % inhibition versus the test compound concentrations and for non-linear regression analysis of the data. Depending on the range of data points defining the inhibition curve, the data may have been fit to the 4-parameter logistic equation.
Description for CYP2C19: as §1, §2, §3, §4, §5, §6, §7, §8
Description for CYP3A4: as §1, §2, §3, §4, §5, §6, §7, §8

For the molecule `C[C@H](c1ccc(F)cc1)n1cncc1CN1CCC(C#N)(c2ccccc2)CC1` [Compound 14, (R)-1-((1-(1-(4-fluorophenyl)ethyl)-1H-imidazol-5-yl)methyl)-4-phenylpiperidine-4-carbonitrile], the IC50 at CYP3A4 (setting [1]) worked out at 17 nM; against CYP1A2, 5520 nM; against CYP2C9 (setting [2]), 2200 nM; on CYP2C19 (setting [3]), 2600 nM; at CYP2D6 (setting [4]), 3700 nM.

With `COC(=O)C1(c2ccccc2)CCN(Cc2cncn2[C@H](C)c2ccc(F)cc2)CC1` [Compound 15, (R)-methyl 1-((1-(1-(4-fluorophenyl)ethyl)-1H-imidazol-5-yl)methyl)-4-phenylpiperidine-4-carboxylate], the IC50 against CYP3A4 (setting [1]) was found to be 16 nM; against CYP1A2, 2420 nM; against CYP2C9 (setting [2]), 1390 nM; against CYP2C19 (setting [3]), 1250 nM; against CYP2D6 (setting [4]), 2080 nM.

Consider `CC(c1ccccc1-c1ccc(F)cc1)n1cncc1CN1CCC(F)(F)C1` (stereo not drawn) [Compound 16, 5-((3,3-difluoropyrrolidin-1-yl)methyl)-1-(1-(4′-fluoro-[1,1′-biphenyl]-2-yl)ethyl)-1H-imidazole], for which the IC50 was 18 nM at CYP3A4 (setting [5]); greater than 10000 nM on CYP1A2 (setting [6]); 7470 nM on CYP2C9 (setting [7]); 4270 nM on CYP2C19 (setting [8]); 1930 nM at CYP2D6 (setting [9]).

With `CC(c1ccccc1-c1ccc(F)cc1)n1cncc1CN1CCC(O)C1` (stereo not drawn) [Compound 17, 1-((1-(1-(4′-fluoro-[1,1′-biphenyl]-2-yl)ethyl)-1H-imidazol-5-yl)methyl) pyrrolidin-3-ol], the 50% inhibitory concentration (IC50) was 29 nM at CYP3A4 (setting [5]); greater than 10000 nM on CYP1A2 (setting [6]); greater than 10000 nM on CYP2C9 (setting [7]); greater than 10000 nM on CYP2C19 (setting [8]); 4040 nM at CYP2D6 (setting [9]).

As for `CC(c1ccccc1-c1ccc(F)cc1)n1cncc1CN1CCCNC(=O)C1` (stereo not drawn) [Compound 18, 4-((1-(1-(4′-fluoro-[1,1′-biphenyl]-2-yl)ethyl)-1H-imidazol-5-yl)methyl)-1,4-diazepan-2-one], the IC50 at CYP3A4 (setting [5]) is 29 nM; at CYP1A2 (setting [6]) it was greater than 10000 nM; at CYP2C9 (setting [7]), greater than 10000 nM; at CYP2C19 (setting [8]), 4790 nM; on CYP2D6 (setting [9]), greater than 10000 nM.

Take `C[C@H](c1ccc(C#N)cc1)n1cncc1CN1CCC2(CC1)C(=O)NCN2c1ccccc1` [Compound 19, (R)-4-(1-(5-((4-oxo-1-phenyl-1,3,8-triazaspiro[4.5]decan-8-yl)methyl)-1H-imidazol-1-yl)ethyl) benzonitrile]: the 50% inhibitory concentration (IC50) was 50 nM on CYP3A4 (setting [5]); greater than 10000 nM at CYP1A2 (setting [6]); 1660 nM on CYP2C9 (setting [7]); 2420 nM on CYP2C19 (setting [8]); 9970 nM on CYP2D6 (setting [9]).

Take `CC(c1ccccc1-c1ccc(F)cc1)n1cncc1CN1CCS(=O)(=O)CC1` (stereo not drawn) [Compound 20, 4-((1-(1-(4′-fluoro-[1,1′-biphenyl]-2-yl)ethyl)-1H-imidazol-5-yl)methyl) thiomorpholin 1,1-dioxide]: the IC50 on CYP3A4 (setting [5]) is 35 nM; on CYP1A2 (setting [6]), greater than 10000 nM; at CYP2C9 (setting [7]), greater than 10000 nM; on CYP2C19 (setting [8]), 9910 nM; on CYP2D6 (setting [9]) it was greater than 10000 nM.

For `C[C@H](c1ccc(C#N)cc1)n1cncc1CN1CCC(c2nc3ccccc3o2)CC1` [Compound 21, (R)-4-(1-(5-((4-(benzo[d]oxazol-2-yl)piperidin-1-yl)methyl)-1H-imidazol-1-yl)ethyl) benzonitrile], the IC50 at CYP3A4 (setting [5]) was 35 nM; at CYP1A2 (setting [6]), greater than 10000 nM; on CYP2C9 (setting [7]) it was 4080 nM; on CYP2C19 (setting [8]), 8700 nM; at CYP2D6 (setting [9]) it was 7520 nM.

Turning to `C[C@H](c1ccc(C#N)cc1)n1cncc1CN1CCC(c2nc3ccccc3s2)CC1` [Compound 22, (R)-4-(1-(5-((4-(benzo[d]thiazol-2-yl)piperidin-1-yl)methyl)-1H-imidazol-1-yl)ethyl) benzonitrile], the IC50 at CYP3A4 (setting [5]) is 26 nM; at CYP1A2 (setting [6]), greater than 10000 nM; on CYP2C9 (setting [7]) it was 1760 nM; on CYP2C19 (setting [8]), 4690 nM; on CYP2D6 (setting [9]), 3210 nM.

Turning to `C[C@H](c1ccc(F)cc1)n1cncc1CN1CCN(c2nc3ccccc3o2)CC1` [Compound 23, (R)-2-(4-((1-(1-(4-fluorophenyl)ethyl)-1H-imidazol-5-yl)methyl)piperazin-1-yl)benzo[d]oxazole], the IC50 at CYP3A4 (setting [5]) was 7 nM; on CYP1A2 (setting [6]) it was greater than 10000 nM; at CYP2C9 (setting [7]) it was 4370 nM; on CYP2C19 (setting [8]), 3160 nM; on CYP2D6 (setting [9]), 2920 nM.

On to `C[C@H](c1ccc(C#N)cc1)n1cncc1CN1CCN(c2nc3ccccc3o2)CC1` [Compound 24, (R)-4-(1-(5-((4-(benzo[d]oxazol-2-yl)piperazin-1-yl)methyl)-1H-imidazol-1-yl)ethyl) benzonitrile], for which the IC50 at CYP3A4 (setting [5]) was 11 nM; on CYP1A2 (setting [6]), greater than 10000 nM; on CYP2C9 (setting [7]), 3430 nM; at CYP2C19 (setting [8]) it was 2260 nM; on CYP2D6 (setting [9]) it was 3080 nM.

As for `N#Cc1ccc(C2(n3cncc3CN3CCN(c4nc5ccccc5o4)CC3)CC2)cc1` [Compound 25, 4-(1-(5-((4-(benzo[d]oxazol-2-yl)piperazin-1-yl)methyl)-1H-imidazol-1-yl)cyclopropyl) benzonitrile], the IC50 is 28 nM on CYP3A4 (setting [5]); greater than 10000 nM on CYP1A2 (setting [6]); 9590 nM at CYP2C9 (setting [7]); greater than 10000 nM on CYP2C19 (setting [8]); 2910 nM at CYP2D6 (setting [9]).

Take `CC(C)OCCn1cncc1CN1CCN(c2nc3ccccc3o2)CC1` [Compound 26, 2-(4-((1-(2-isopropoxyethyl)-1H-imidazol-5-yl)methyl)piperazin-1-yl)benzo[d]oxazole]: the IC50 at CYP3A4 (setting [5]) is 21 nM; on CYP1A2 (setting [6]), greater than 10000 nM; on CYP2C9 (setting [7]), greater than 10000 nM; on CYP2C19 (setting [8]), greater than 10000 nM; at CYP2D6 (setting [9]), 1040 nM.

As to `CC(C)C(C)n1cncc1CN1CCN(c2nc3ccccc3o2)CC1` (stereo not drawn) [Compound 27, 2-(4-((1-(3-methylbutan-2-yl)-1H-imidazol-5-yl)methyl)piperazin-1-yl)benzo[d]oxazole], the IC50 on CYP3A4 (setting [5]) is 9 nM; on CYP1A2 (setting [6]), greater than 10000 nM; at CYP2C9 (setting [7]), greater than 10000 nM; at CYP2C19 (setting [8]) it was greater than 10000 nM; on CYP2D6 (setting [9]) it was 1760 nM.

Turning to `C[C@H](c1ccc(C#N)cc1)n1cncc1CN1CCN(c2nc3cccc(F)c3o2)CC1` [Compound 28, (R)-4-(1-(5-((4-(7-fluorobenzo[d]oxazol-2-yl)piperazin-1-yl)methyl)-1H-imidazol-1-yl)ethyl)benzonitrile], the IC50 was 10 nM on CYP3A4 (setting [5]); greater than 10000 nM on CYP1A2 (setting [6]); 3870 nM at CYP2C9 (setting [7]); 3570 nM on CYP2C19 (setting [8]); 1110 nM at CYP2D6 (setting [9]).

For `Cc1cccc2nc(N3CCN(Cc4cncn4[C@H](C)c4ccc(C#N)cc4)CC3)oc12` [Compound 29, (R)-4-(1-(5-((4-(7-methylbenzo[d]oxazol-2-yl)piperazin-1-yl)methyl)-1H-imidazol-1-yl)ethyl)benzonitrile], the IC50 at CYP3A4 (setting [5]) was 20 nM; at CYP1A2 (setting [6]), greater than 10000 nM; on CYP2C9 (setting [7]) it was 2490 nM; on CYP2C19 (setting [8]), 4970 nM; at CYP2D6 (setting [9]), 2770 nM.

With `C[C@H](c1ccc(C#N)cc1)n1cncc1CN1CCN(c2nc3ccc(F)cc3o2)CC1` [Compound 30, (R)-4-(1-(5-((4-(6-fluorobenzo[d]oxazol-2-yl)piperazin-1-yl)methyl)-1H-imidazol-1-yl)ethyl)benzonitrile], the IC50 on CYP3A4 (setting [5]) is 7 nM; on CYP1A2 (setting [6]) it was greater than 10000 nM; on CYP2C9 (setting [7]), 5550 nM; at CYP2C19 (setting [8]), 8400 nM; at CYP2D6 (setting [9]) it was 1620 nM.

In the case of `C[C@H](c1ccc(C#N)cc1)n1cncc1CN1CCN(c2nc3ccc(F)c(F)c3o2)CC1` [Compound 31, (R)-4-(1-(5-((4-(6,7-difluorobenzo[d]oxazol-2-yl)piperazin-1-yl)methyl)-1H-imidazol-1-yl)ethyl) benzonitrile], the IC50 on CYP3A4 (setting [5]) was 7 nM; on CYP1A2 (setting [6]), greater than 10000 nM; on CYP2C9 (setting [7]), 2320 nM; at CYP2C19 (setting [8]), 3740 nM; at CYP2D6 (setting [9]), 2870 nM.
